Assays:
[1] = molecular target: T1, Corticotropin-releasing factor receptor 1 (Homo sapiens, UniProt P34998); assay: Displacement of ovine [125I]CRF from human CRF1 receptor expressed in CHO cells; format: cell-based
T1 sequence (P34998 whole entry): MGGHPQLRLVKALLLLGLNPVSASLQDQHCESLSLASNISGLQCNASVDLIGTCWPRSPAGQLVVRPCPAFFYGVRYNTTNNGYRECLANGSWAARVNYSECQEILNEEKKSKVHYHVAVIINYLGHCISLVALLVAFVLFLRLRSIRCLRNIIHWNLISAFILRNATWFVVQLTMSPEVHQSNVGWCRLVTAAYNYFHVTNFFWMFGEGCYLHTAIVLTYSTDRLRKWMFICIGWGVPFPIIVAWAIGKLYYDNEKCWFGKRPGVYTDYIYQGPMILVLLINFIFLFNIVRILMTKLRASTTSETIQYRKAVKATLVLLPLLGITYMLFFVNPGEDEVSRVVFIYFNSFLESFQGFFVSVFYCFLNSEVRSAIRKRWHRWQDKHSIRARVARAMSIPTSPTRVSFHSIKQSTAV

[2] = test system: Mus musculus; assay: Ex vivo displacement of [125I]-sauvagine from CRF1 receptor in mouse frontal cortex at 30 mg/kg, po administered 60 mins before mouse decapitation and measured after 2 hrs by gamma scintillation counting; format: functional
[3] = test system: Mus musculus; assay: Ex vivo displacement of [125I]-sauvagine from CRF1 receptor in mouse pituitary gland at 30 mg/kg, po administered 60 mins before mouse decapitation and measured after 2 hrs by gamma scintillation counting; format: functional
[4] = test system: Mus musculus; assay: Ex vivo displacement of [125I]-sauvagine from CRF1 receptor in mouse Olfactory bulb at 30 mg/kg, po administered 60 mins before mouse decapitation and measured after 2 hrs by gamma scintillation counting; format: functional
[5] = Ratio of drug uptake in brain to plasma of mouse at 30 mg/kg, po; format: ADME, organism-based; design: dose 30 mg/kg, route oral; conditions: read-out: BBB

| Structure (SMILES) | IC50 [1] | further results |
| --- | --- | --- |
| Cc1cc(C)c(-c2cn(C)c3nc(N(CC4CC4)CC4CC4)n(C)c(=O)c23)c(C)c1 | 140 nM |  |
| CCCCN(CCCC)c1nc2c(c(-c3c(C)cc(C)cc3C)cn2C)c(=O)n1C | 970 nM |  |
| CCCN(CCC)c1nc2c(c(-c3ccc(C)cc3C)c(C)n2C)c(=O)n1C | 3300 nM |  |
| Cc1cc(C)c(-c2cn(C)c3nc(N4CCCCC4)n(C)c(=O)c23)c(C)c1 | 3800 nM |  |
| CCCN(CCC)c1nc2c(c(-c3ccc(C(F)(F)F)cc3C(F)(F)F)cn2C)c(=O)n1C | 3000 nM |  |
| CCCN(CCC)c1nc2c(c(-c3c(OC)cc(OC)cc3OC)cn2C)c(=O)n1C | 3100 nM |  |
| CCCN(CCC)c1nc2c(c(-c3c(C)cc(C)cc3C)c(C)n2C)c(=O)n1C | 1100 nM |  |
| CCCN(CCC)c1nc2c(c(-c3ccc(OC)cc3OC)cn2C)c(=O)n1C | 3000 nM |  |
| CCN(CC)c1nc2c(c(-c3c(C)cc(C)cc3C)cn2C)c(=O)n1C | 7700 nM |  |
| CCC(CC)Oc1cc(C)nc(Oc2c(C)cc(C)cc2C)c1C | 92 nM |  |
| CCCN(CCC)c1nc2c(c(-c3c(C)cc(C)cc3C)cn2C)c(=O)n1C | 120 nM | inhibition in vivo at 30 mg/kg [2]: 35%; inhibition in vivo at 30 mg/kg [3]: 53%; inhibition in vivo at 30 mg/kg [4]: 22%; Kp [5]: 0.42 |
| CCCCN(CC)c1nc(C)nc2c1c(C)cn2-c1c(C)cc(C)cc1C [CP-154526] | 11 nM |  |
| CCCN(CCC)c1nc2c(c(-c3ccc(C)cc3C)cn2C)c(=O)n1C | 1600 nM |  |

From ChEMBL document CHEMBL1759941, “Discovery of pyrrolo[2,3-d]pyrimidin-4-ones as corticotropin-releasing factor 1 receptor antagonists with a carbonyl-based hydrogen bonding acceptor” (Bioorg Med Chem Lett, 2011)
